# Source: PMC7433010, “Exploration of multi‐target effects of 3‐benzoyl‐5‐hydroxychromen‐2‐one in Alzheimer’s disease cell and mouse models” (Aging Cell, 2020)
# Like-named read-outs stand apart in the source and are kept apart here.
# Experiment: MTT cytotoxicity in uninduced retinoic acid‐differentiated SH‐SY5Y cells
# Type: cell-based
# Conditions: human
# Procedure: Licochalcone A and five derivative LM compounds were tested (Figure 1a). All six compounds were soluble up to 100 μM in a cell culture medium (Figure S1a). Based on molecular weight (MW), hydrogen bond donors (HBD), hydrogen bond acceptors (HBA), and calculated octanol/water partition coefficient (cLogP), all six compounds meet Lipinski's criteria in predicting oral bioavailability (Lipinski, Lombardo, Dominy, & Feeney, 1997) (Figure S1b). […] To choose the optimal treatment dose used for the best efficacy of the candidate compounds, a specific type of biphasic dose response of a compound called hormesis should take into consideration. Evidence has shown that a wide range of pharmaceutical products display a hermetic dose‐response feature, characterized by a low‐dose stimulation and a high‐dose inhibition (Calabrese et al., 2018; Concetta Scuto et al., 2019; Pilipenko et al., 2019). Therefore, we tested the compounds at a range of doses to find the optimal dose for the best therapeutic effect and the least cytotoxicity. Firstly, MTT assay was performed using uninduced ∆K280 TauRD‐DsRed 293 and retinoic acid‐differentiated SH‐SY5Y cells following treatment with the test compounds (0.1–10 μM) for 3 (for 293 cells) or 7 (for SH‐SY5Ycells) days. […] Congo red is an amyloidogenic dye known to reduce Aβ neurotoxicity (Lorenzo & Yankner, 1994).
# Licochalcone A was purchased from Sigma-Aldrich, St. Louis, MO, USA. In-house LM compounds were synthesized and characterized by NMR spectrum as described (Lee et al., 2012, 2015, 2018). Tet-On ∆K280 TauRD-DsRed 293 and SH-SY5Y cells (Chang et al., 2016) were cultured in Dulbecco’s modified Eagles medium (DMEM) (293) or DMEM-F12 (SH-SY5Y) containing 10% fetal bovine serum (Invitrogen, Carlsbad, CA, USA), 5 μg/ml of blasticidin, and 100 μg/ml of hygromycin (InvivoGen, San Diego, CA, USA). Compound cytotoxicity was assessed by colorimetric assay for measuring cell metabolic activity. Briefly, 5 × 10^4 cells were plated (48-well plates), grown for 20 h, and treated with the test compounds ([…]). […], 20 µl of 3-(4,5-dimethylthiazol-2-yl)-2,5-diphenyltetrazolium bromide (MTT, 5 mg/ml in PBS; Sigma-Aldrich) was added to the cells and incubated at 37°C for 3 h. Then 200 µl of lysis buffer (10% Triton X-100, 0.1 N HCl, 18% isopropanol) was added and the absorbance of the insoluble product at OD 570 nm was measured by a microplate reader (FLx800 fluorescence microplate reader, Bio-Tek, Winooski, VT, USA). The half-maximal inhibitory concentration (IC50) was calculated using the interpolation method.
# Figure S1. Test compounds. (a) Solubility (in cell culture medium) of test compounds. (b) Molecular weight (MW), hydrogen bond donor (HBD), hydrogen bond acceptor (HBA), calculated octanol-water partition coefficient (cLogP), polar surface area (PSA), and predicted blood-brain barrier (BBB) score of test compounds. (c) Cytotoxicity of test compounds against ∆K280 TauRD-DsRed 293 and SH-SY5Y cells using the MTT assay. Uninduced 293 cells were plated on day 1 and treated with 0.1–10 μM test compounds on day 2. Cell viability was measured on day 5 (n = 3). In addition, uninduced SH-SY5Y cells were seeded with all trans retinoic acid (RA; 10 µM) on day 1 and treated with 0.1–10 μM test compounds on day 2. Cell viability was measured on day 9 (n = 3). To normalize, the relative viability in compound untreated cells was set at 100%. IC50 values are listed.
SMILES,"IC50 at 7 days (uninduced retinoic acid‐differentiated SH‐SY5Y cells, 7 days treatment, read-out: IC50 (MTT cytotoxicity)) [µM]",IC50 at 7 days [µM]
"C=CC(C)(C)c1cc(/C=C/C(=O)c2ccc(O)cc2)c(OC)cc1O [licochalcone A, reference compound]",5.8,
"Nc1c(/N=N/c2ccc(-c3ccc(/N=N/c4cc(S(=O)(=O)O)c5ccccc5c4N)cc3)cc2)cc(S(=O)(=O)O)c2ccccc12 [congo red, reference compound]",,27.4
"O=C(c1ccccc1)c1cc2c(O)cccc2oc1=O [LM‐031, 3‐benzoyl‐5‐hydroxychromen‐2‐one]",,6.8
COc1ccc(C(=O)/C=C/c2cc(Br)ccc2O)cc1 [LM‐004],,4.8
